Data on nine compounds can be found in ChEMBL document CHEMBL3045503, “Mode of Action of Herbicides Affecting Carotenogenesis” (J Pestic Sci, 1996).

Each structure is given as a SMILES string. Where only a bound is given, the exact number is not on record here.

Assay [1] deals with Nicotiana tabacum. Nature of the assay: Inhibition of colored carotenoid formation in transgenic Nicotiana tabacum (tobacco) ET4-208. In kind it is functional, organism-based. Particulars: read-out: I50.
In assay [2] the test system is Nicotiana tabacum. Kind of assay: Inhibition of colored carotenoid formation in Nicotiana tabacum (tobacco). The format is functional, organism-based. The conditions noted are these: read-out: I50.
Assay [3] concerns Pantoea ananatis. Kind of assay: Resistance factor, ratio of I50 for Pantoea ananatis NFZ4 phytoene desaturase mutant to I50 for wild-type Erwinia uredovora phytoene desaturase by cellular assay.
The test system of assay [4] is Pantoea ananatis. Nature of the assay: Resistance factor, ratio of I50 for Pantoea ananatis NFZ20 phytoene desaturase mutant to I50 for wild-type Erwinia uredovora phytoene desaturase by cellular assay.
Assay [5] deals with Pantoea ananatis. Nature of the assay: Resistance factor, ratio of I50 for Pantoea ananatis NFZ42 phytoene desaturase mutant to I50 for wild-type Erwinia uredovora phytoene desaturase by cell-free assay.
Assay [6] relates to Pantoea ananatis. Kind of assay: Resistance factor, ratio of I50 for Pantoea ananatis NFZ20 phytoene desaturase mutant to I50 for wild-type Erwinia uredovora phytoene desaturase by cell-free assay.
The test system of assay [7] is Pantoea ananatis. Kind of assay: Resistance factor, ratio of I50 for Pantoea ananatis NFZ42 phytoene desaturase mutant to I50 for wild-type Erwinia uredovora phytoene desaturase by cellular assay.
For assay [8], the system named is Pantoea ananatis. Nature of the assay: Resistance factor, ratio of I50 for Pantoea ananatis NFZ4 phytoene desaturase mutant to I50 for wild-type Erwinia uredovora phytoene desaturase by cell-free assay.

For `CC1(C)CC(=O)C(C(=O)c2ccc(Cl)cc2[N+](=O)[O-])C(=O)C1`, the IC50 in the assay with Nicotiana tabacum [1] was found to be 48 nM; with Nicotiana tabacum [2], 42 nM.

Regarding `C=C(Cl)COc1cc(C)nc(NC(C)C)n1`, the IC50 was over 100000 nM with Nicotiana tabacum [1] and 4500 nM with Nicotiana tabacum [2].

On to `CCC(COc1cccc(C(F)(F)F)c1)OC(=O)NCCc1ccccc1` (configuration not stated), for which the IC50 with Nicotiana tabacum [1] is over 100000 nM; in the assay on Nicotiana tabacum [2], 1300 nM.

Regarding `CCOC(=O)C1=C(c2ccccc2)OC(CC)C(C)C1=O` (configuration not stated), the figures for the IC50 in the assay on Nicotiana tabacum [1] and in the assay with Nicotiana tabacum [2] were over 100000 nM and 740 nM, respectively.

As to `Nc1nc[nH]n1` [AMITROLE], the figures for the IC50 in the assay on Nicotiana tabacum [1] and with Nicotiana tabacum [2] were 72000 nM and 68000 nM, respectively.

Turning to `O=C(Nc1ccc(F)cc1F)c1cccnc1Oc1cccc(C(F)(F)F)c1` [DIFLUFENICAN], the IC50 was over 100000 nM with Nicotiana tabacum [1] and 38 nM in the assay on Nicotiana tabacum [2].

Turning to `O=c1c(-c2ccccc2)c[nH]cc1-c1cccc(C(F)(F)F)c1` [FLURIDONE], the Ratio in the assay with Pantoea ananatis [3] is 4; in the assay with Pantoea ananatis [4], 8; in the assay with Pantoea ananatis [5] it was 1; with Pantoea ananatis [6] it was 8; in the assay with Pantoea ananatis [7], 0.5.

Regarding `CNC1=C(c2cccc(C(F)(F)F)c2)C(=O)C(c2ccccc2)O1` (configuration not stated) [FLURTAMONE], the IC50 is over 100000 nM in the assay with Nicotiana tabacum [1] and 47 nM in the assay on Nicotiana tabacum [2].

Turning to `CNc1cnn(-c2cccc(C(F)(F)F)c2)c(=O)c1Cl` [NORFLURAZONE], the Ratio with Pantoea ananatis [3] was 24; in the assay with Pantoea ananatis [4], 20; in the assay with Pantoea ananatis [5] it was 23; in the assay on Pantoea ananatis [6] it was 12; with Pantoea ananatis [8], 15; with Pantoea ananatis [7] it was 40. Further, the IC50 in the assay with Nicotiana tabacum [1] was over 100000 nM; with Nicotiana tabacum [2], 330 nM.
